In patent publication US11254663B2 (BRISTOL-MYERS SQUIBB COMPANY, priority 2019, dated 2022):
pEC50: −log10 of the molar value.

molecular target: FXR (Homo sapiens (Human), UniProt Q96RI1); experiment: FXR EC50 (FXR agonist potency reported with each Example); type: cell-based
Sequence (Q96RI1 262-486): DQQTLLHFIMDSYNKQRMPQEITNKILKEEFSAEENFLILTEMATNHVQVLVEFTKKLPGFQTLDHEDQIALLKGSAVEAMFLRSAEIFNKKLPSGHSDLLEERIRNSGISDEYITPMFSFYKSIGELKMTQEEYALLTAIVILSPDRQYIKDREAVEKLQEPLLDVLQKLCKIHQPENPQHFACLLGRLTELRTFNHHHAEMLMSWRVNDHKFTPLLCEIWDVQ

Point of comparison: `O=C(N(CC12CCC(c3noc(C(F)F)n3)(CC1)CC2)c1cccc(-c2nc(C3CC3)no2)c1)C12CC(F)(C1)C2` [Example 117, N-(3-(3-cyclopropyl-1,2,4-oxadiazol-5-yl)phenyl)-N-((4-(5-(difluoromethyl)-1,2,4-oxadiazol-3-yl)bicyclo[2.2.2]octan-1-yl)methyl)-3-fluorobicyclo[1.1.1]pentane-1-carboxamide], pEC50 7.92. Against it:
- CC(C)(C)c1nc(-c2cccc(N(CC34CCC(c5nc(C6CC6)no5)(CC3)CC4)C(=O)C34CC(F)(C3)C4)c2)no1 [Example 107, N-(3-(5-(tert-butyl)-1,2,4-oxadiazol-3-yl)phenyl)-N-((4-(3-cyclopropyl-1,2,4-oxadiazol-5-yl)bicyclo[2.2.2]octan-1-yl)methyl)-3-fluorobicyclo[1.1.1]pentane-1-carboxamide] — within 0.2 log units, 7.74
- COCc1coc(-c2cccc(N(CC34CCC(c5nc(C6CC6)no5)(CC3)CC4)C(=O)C34CC(F)(C3)C4)c2)n1 [Example 85, N-((4-(3-cyclopropyl-1,2,4-oxadiazol-5-yl)bicyclo[2.2.2]octan-1-yl)methyl)-3-fluoro-N-(3-(4-(methoxymethyl)oxazol-2-yl)phenyl)bicyclo[1.1.1]pentane-1-carboxamide] — 1.06 log units lower, 6.86
- O=C(N(CC12CCC(c3nc(C4CC4)no3)(CC1)CC2)c1cccc(-c2noc(C3CC3)n2)c1)C12CC(F)(C1)C2 [Example 104, N-(3-(5-cyclopropyl-1,2,4-oxadiazol-3-yl)phenyl)-N-((4-(3-cyclopropyl-1,2,4-oxadiazol-5-yl)bicyclo[2.2.2]octan-1-yl)methyl)-3-fluorobicyclo[1.1.1]pentane-1-carboxamide] — 0.70 log units lower, 7.22
- O=C(C1CCC1)N(CC12CCC(c3nc(CC4CC4)no3)(CC1)CC2)c1cccc(-c2nc(C3CC3)no2)c1 [Example 71, N-(3-(3-cyclopropyl-1,2,4-oxadiazol-5-yl)phenyl)-N-((4-(3-(cyclopropylmethyl)-1,2,4-oxadiazol-5-yl)bicyclo[2.2.2]octan-1-yl)methyl)cyclobutanecarboxamide] — 1.53 log units lower, 6.39
- CC1(NC(=O)N(CC23CCC(c4nc(C5CC5)no4)(CC2)CC3)c2cccc(-c3nc(C4CC4)no3)c2)CC1 [Example 94, 1-((4-(3-cyclopropyl-1,2,4-oxadiazol-5-yl)bicyclo[2.2.2]octan-1-yl)methyl)-1-(3-(3-cyclopropyl-1,2,4-oxadiazol-5-yl)phenyl)-3-(1-methylcyclopropyl)urea] — 1.34 log units lower, 6.58
- O=C(N(CC12CCC(c3nc(C4CC4)no3)(CC1)CC2)c1cccc(-c2cnn(CC(F)F)c2)c1)C12CC(F)(C1)C2 [Example 161, N-((4-(3-cyclopropyl-1,2,4-oxadiazol-5-yl)bicyclo[2.2.2]octan-1-yl)methyl)-N-(3-(1-(2,2-difluoroethyl)-1H-pyrazol-4-yl)phenyl)-3-fluorobicyclo[1.1.1]pentane-1-carboxamide] — 0.90 log units lower, 7.02
- O=C(C1CCC(F)(F)C1)N(CC12CCC(c3nc(CC4CC4)no3)(CC1)CC2)c1cccc(-c2nc(C3CC3)no2)c1 (stereo not drawn) [Example 69, N-(3-(3-cyclopropyl-1,2,4-oxadiazol-5-yl)phenyl)-N-((4-(3-(cyclopropylmethyl)-1,2,4-oxadiazol-5-yl)bicyclo[2.2.2]octan-1-yl)methyl)-3,3-difluorocyclopentane-1-carboxamide] — 1.60 log units lower, 6.32
- Cc1noc(-c2cccc(N(CC34CCC(c5ccc(C6CC6)cc5)(CC3)CC4)C(=O)C3CC3)c2)n1 [Example 2, N-((4-(4-cyclopropylphenyl)bicyclo[2.2.2]octan-1-yl)methyl)-N-(3-(3-methyl-1,2,4-oxadiazol-5-yl)phenyl)cyclopropanecarboxamide] — 2.41 log units lower, 5.51
- CCOc1ncc(-c2cccc(N(CC34CCC(c5ccc(C(C)(C)C#N)cc5)(CC3)OC4)C(=O)C34CC(F)(C3)C4)c2)o1 [Example 51, N-((1-(4-(2-cyanopropan-2-yl)phenyl)-2-oxabicyclo[2.2.2]octan-4-yl)methyl)-N-(3-(2-ethoxyoxazol-5-yl)phenyl)-3-fluorobicyclo[1.1.1]pentane-1-carboxamide] — 0.32 log units lower, 7.60
- O=C(N(CC12CCC(c3nc(CC4CC4)no3)(CC1)CC2)c1cccc(-c2nc(CC3CC3)no2)c1)C12CC(F)(C1)C2 [Example 61, N-((4-(3-(cyclopropylmethyl)-1,2,4-oxadiazol-5-yl)bicyclo[2.2.2]octan-1-yl)methyl)-N-(3-(3-(cyclopropylmethyl)-1,2,4-oxadiazol-5-yl)phenyl)-3-fluorobicyclo[1.1.1]pentane-1-carboxamide] — 0.92 log units lower, 7.00
- CCOc1nnc(-c2cccc(N(CC34CCC(c5nc(C6CC6)no5)(CC3)CC4)C(=O)C34CC(F)(C3)C4)c2)o1 [Example 53, N-((4-(3-cyclopropyl-1,2,4-oxadiazol-5-yl)bicyclo[2.2.2]octan-1-yl)methyl)-N-(3-(5-ethoxy-1,3,4-oxadiazol-2-yl)phenyl)-3-fluorobicyclo[1.1.1]pentane-1-carboxamide] — 0.83 log units lower, 7.09
- O=C(N(CC12CCC(c3nc(C4CC4)no3)(CC1)CC2)c1cccc(-c2noc(C3(O)CC3)n2)c1)C12CC(F)(C1)C2 [Example 110, N-((4-(3-cyclopropyl-1,2,4-oxadiazol-5-yl)bicyclo[2.2.2]octan-1-yl)methyl)-3-fluoro-N-(3-(5-(1-hydroxycyclopropyl)-1,2,4-oxadiazol-3-yl)phenyl)bicyclo[1.1.1]pentane-1-carboxamide] — 0.86 log units lower, 7.06
- Cn1nc(C(C)(C)C)cc1-c1cccc(N(CC23CCC(c4noc(C(C)(C)C)n4)(CC2)CC3)C(=O)C23CC(F)(C2)C3)c1 [Example 213, N-((4-(5-(tert-butyl)-1,2,4-oxadiazol-3-yl)bicyclo[2.2.2]octan-1-yl)methyl)-N-(3-(3-(tert-butyl)-1-methyl-1H-pyrazol-5-yl)phenyl)-3-fluorobicyclo[1.1.1]pentane-1-carboxamide] — 1.22 log units lower, 6.70
- O=C(N(CC12CCC(c3nc(C4CC4)co3)(CC1)CC2)c1cccc(-c2cnc(C3CC3)o2)c1)C12CC(F)(C1)C2 [Example 82, N-((4-(4-cyclopropyloxazol-2-yl)bicyclo[2.2.2]octan-1-yl)methyl)-N-(3-(2-cyclopropyloxazol-5-yl)phenyl)-3-fluorobicyclo[1.1.1]pentane-1-carboxamide] — 0.60 log units lower, 7.32
- O=C(N(CC12CCC(c3ccc(C(F)(F)F)cn3)(CC1)CC2)c1cccc(-c2noc(C(F)F)n2)c1)C12CC(F)(C1)C2 [Example 189, N-(3-(5-(difluoromethyl)-1,2,4-oxadiazol-3-yl)phenyl)-3-fluoro-N-((4-(5-(trifluoromethyl)pyridin-2-yl)bicyclo[2.2.2]octan-1-yl)methyl)bicyclo[1.1.1]pentane-1-carboxamide] — 1.76 log units lower, 6.16
- CC(F)(F)c1nc(C23CCC(CN(C(=O)C45CC(F)(C4)C5)c4cccc(-c5noc(C6(C)CC6)n5)c4)(CC2)CC3)no1 [Example 179, N-((4-(5-(1,1-difluoroethyl)-1,2,4-oxadiazol-3-yl)bicyclo[2.2.2]octan-1-yl)methyl)-3-fluoro-N-(3-(5-(1-methylcyclopropyl)-1,2,4-oxadiazol-3-yl)phenyl)bicyclo[1.1.1]pentane-1-carboxamide] — 0.68 log units lower, 7.24
- COc1cc(-c2cccc(N(CC34CCC(c5nc(C)no5)(CC3)CC4)C(=O)C34CC(F)(C3)C4)c2)ccn1 [Example 228, 3-fluoro-N-(3-(2-methoxypyridin-4-yl)phenyl)-N-((4-(3-methyl-1,2,4-oxadiazol-5-yl)bicyclo[2.2.2]octan-1-yl)methyl)bicyclo[1.1.1]pentane-1-carboxamide] — 1.57 log units lower, 6.35
